Source: US11447525B2 (NIIGATA UNIVERSITY, priority 2018, dated 2022)
Non-standard residues stand in square brackets, D forms with d. Residues, ends and D or L forms follow the SMILES beside them. No end group written: not given here. *: point of attachment. 5FAM = O=C1OC2(c3ccc(O)cc3Oc3cc(O)ccc32)c2ccc(C(=O)*)cc21; NMeR = CN[C@@H](CCCNC(=N)N)C(=O)O

Experiments:
[1] = system: BxPC3 cells, PK-8 cells, AsPC1 cells and MIA-Paca2 cells (PDAC); test: Accumulation of PCPP11 and partially deleted peptides in cells (Reference Example 3); assay type: cell-based, human; conditions: for order of the strength of fluorescence in the pancreatic cancer cells: same method as Test Example 2; for fluorescence detected (absorbed fluorescence): same method as Test Example 2 (2 μM, 37° C., 2 hours)
Experimental: Test were conducted confirming the accumulation of PCPP11 and partially deleted peptides thereof in BxPC3 cells, PK-8 cells, AsPC1 cells and MIA-Paca2 cells (all cell lines derived from human invasive pancreatic ductal adenocarcinoma (PDAC)) and in H2110 cells (lung adenocarcinoma cells). The peptides shown below in Table 10 were used.
Using the same method as Test Example 2, each peptide was added to each of the cells and then observed under a microscope. In FIG. 16, “full length” indicates the cells to which FAM-PCPP11 was added, “trunc-ver1” indicates cells to which a trunc-ver1-PCPP11 was added, “trunc-ver2” indicates cells to which a trunc-ver2-PCPP11 was added, and “trunc-ver3” indicates cells to which a trunc-ver3-PCPP11 was added.

[2] = Degradation test by human blood plasma, MALDI-TOFMS analysis; assay type: in vitro ADME; conditions: 50% by mass human blood plasma; 120 min; read-out: degradation resistance (proportion of the peptide retained without degradation)
Experimental: Specifically, a peptide composed of the amino acid sequence represented by SEQ ID NO: 1 (hereafter sometimes referred to as “PCPP11”) was added to human blood plasma having a concentration of 50% by mass, the mixture was sampled immediately after starting the degradation test (after 0 minutes), and then after 5 minutes, after 10 minutes, after 20 minutes, after 30 minutes, after 60 minutes and after 120 minutes, and the samples were analyzed by MALDI-TOFMS (Matrix Assisted Laser Desorption/Ionization-Time Of Flight Mass Spectrometry). In Table 2, “UK” is an abbreviation for “unknown”. Further, the No. shown for each peptide in Table 2 corresponds with the numerical value recorded on the peaks of the graphs shown in FIG. 1.
Each of the peptides described above was added to human blood plasma having a concentration of 50% by mass, the resulting mixture was sampled immediately after starting the degradation test (after 0 minutes), and then after 5 minutes, after 10 minutes, after 20 minutes, after 30 minutes, after 60 minutes and after 120 minutes, and the samples were analyzed by MALDI-TOFMS. The results are shown in FIGS. 2 to 6 and Tables 4 to 6 shown below. Furthermore, the data for the degradation test by human blood plasma using PCPP11 from Reference Example 1 and the degradation tests by human blood plasma using each of the above peptides are collated in FIG. 7 and Table 7. The SEQ ID NO listed for the FAM-labeled peptide represents the SEQ ID NO of the peptide portion. Further, the No. shown for each peptide in Tables 4 to 6 corresponds with the numerical value recorded on the peaks of the graphs shown in FIGS. 2 to 6. In each table, in those cases where the numerical values are shown separated into an upper row and a lower row, the upper row value indicates the proportion (%) of peak area for two or more peptides relative to the total peak area in the MALDI-TOFMS analysis. On the other hand, the lower row value indicates the proportion (%) of each peptide when the peak area for the two or more peptides is deemed to be 100%. Moreover, for example, for the peptide No. 9 shown in Table 4, the left-side “70.0%” indicates the proportion (%) of the peptide No. 9 when the total peak area for the peptides No. 9 to 11 is deemed to be 100%, whereas the right-side “65%” indicates the proportion (%) of the peptide No. 9 relative to the total peak area in the MALDI-TOFMS analysis. This system is also used in the following tables.

[3] = human blood plasma having a concentration of 50% by mass; conditions: up to 120 minutes

Row | Compound | order of the strength of fluorescence in the pancreatic cancer cells [1] | fluorescence detected (absorbed fluorescence) [1] | further results
1 | C[C@@H](O)[C@H](NC(=O)[C@@H](NC(=O)[C@@H]1CCCN1C(=O)[C@H](CCCNC(=N)N)NC(=O)[C@H](CCCNC(=N)N)NC(=O)c1ccc2c(c1)C(=O)OC21c2ccc(O)cc2Oc2cc(O)ccc21)[C@@H](C)O)C(=O)N[C@@H](Cc1c[nH]c2ccccc12)C(=O)N[C@@H](Cc1c[nH]cn1)C(=O)O [FAM-trunc-ver3-PCPP11, [FAM]-RRPTTWH] (5FAM-RRPTTWH-OH; C-terminus assumed) | full-length≥trunc-ver3>trunc-ver1>>trunc-ver2 | – | –
2 | C[C@@H](O)[C@H](NC(=O)c1ccc2c(c1)C(=O)OC21c2ccc(O)cc2Oc2cc(O)ccc21)C(=O)N[C@H](C(=O)N[C@@H](Cc1c[nH]c2ccccc12)C(=O)N[C@@H](Cc1c[nH]cn1)C(=O)N[C@@H](CCCCN)C(=O)N1CCC[C@H]1C(=O)O)[C@@H](C)O [FAM-trunc-ver2-PCPP11, [FAM]-TTWHKP] (5FAM-TTWHKP-OH; C-terminus assumed) | full-length≥trunc-ver3>trunc-ver1>>trunc-ver2 | marked reduction in absorbed fluorescence | –
3 | C[C@@H](O)[C@H](NC(=O)[C@@H](NC(=O)[C@@H]1CCCN1C(=O)[C@H](CCCNC(=N)N)NC(=O)c1ccc2c(c1)C(=O)OC21c2ccc(O)cc2Oc2cc(O)ccc21)[C@@H](C)O)C(=O)N[C@@H](Cc1c[nH]c2ccccc12)C(=O)O [FAM-trunc-ver4-PCPP11, [FAM]-RPTTW] (5FAM-RPTTW-OH; C-terminus assumed) | – | almost no fluorescence was observed | –
4 | C[C@@H](O)[C@H](NC(=O)[C@@H](NC(=O)[C@@H]1CCCN1C(=O)[C@H](CCCNC(=N)N)NC(=O)[C@H](CCCNC(=N)N)NC(=O)c1ccc2c(c1)C(=O)OC21c2ccc(O)cc2Oc2cc(O)ccc21)[C@@H](C)O)C(=O)N[C@@H](Cc1c[nH]c2ccccc12)C(=O)N[C@@H](Cc1c[nH]cn1)C(=O)N[C@@H](CCCCN)C(=O)N1CCC[C@H]1C(=O)O [No. 13, reference compound] (5FAM-RRPTTWHKP-OH; C-terminus assumed) | full-length≥trunc-ver3>trunc-ver1>>trunc-ver2 | – | remaining at 2 h [2]: 29%
5 | RRPTTWHKP | – | – | cleaved bond [3]: arginine-arginine, 5 min; fragment found [3]: RPTTWHKP and RRPTTWH and RPTTWH and TTWHKP and TTWH and TWH, 30 min and WH, 60 min
6 | C[C@@H](O)[C@H](NC(=O)[C@@H](NC(=O)[C@@H]1CCCN1C(=O)c1ccc2c(c1)C(=O)OC21c2ccc(O)cc2Oc2cc(O)ccc21)[C@@H](C)O)C(=O)N[C@@H](Cc1c[nH]c2ccccc12)C(=O)N[C@@H](Cc1c[nH]cn1)C(=O)O [FAM-trunc-ver5-PCPP11, [FAM]-PTTWH] (5FAM-PTTWH-OH; C-terminus assumed) | – | almost no fluorescence was observed | –
7 | R-mR-PTTWHKP-G-RRPTTWHKP (H-R[NMeR]PTTWHKPGRRPTTWHKP-OH; N-terminus and C-terminus assumed; SMILES C[C@@H](O)[C@H](NC(=O)[C@@H](NC(=O)[C@@H]1CCCN1C(=O)[C@H](CCCNC(=N)N)NC(=O)[C@H](CCCNC(=N)N)NC(=O)CNC(=O)[C@@H]1CCCN1C(=O)[C@H](CCCCN)NC(=O)[C@H](Cc1c[nH]cn1)NC(=O)[C@H](Cc1c[nH]c2ccccc12)NC(=O)[C@@H](NC(=O)[C@@H](NC(=O)[C@@H]1CCCN1C(=O)[C@H](CCCNC(=N)N)N(C)C(=O)[C@@H](N)CCCNC(=N)N)[C@@H](C)O)[C@@H](C)O)[C@@H](C)O)C(=O)N[C@@H](Cc1c[nH]c2ccccc12)C(=O)N[C@@H](Cc1c[nH]cn1)C(=O)N[C@@H](CCCCN)C(=O)N1CCC[C@H]1C(=O)O) | – | – | not cleaved [3]: 100% after 120 minutes
8 | R-mR-PTTWHKP-G-pkhwttprr (H-R[NMeR]PTTWHKPG[dP][dK][dH][dW][dT][dT][dP][dR][dR]-OH; N-terminus and C-terminus assumed; SMILES C[C@H](O)[C@@H](NC(=O)[C@@H](Cc1c[nH]c2ccccc12)NC(=O)[C@@H](Cc1c[nH]cn1)NC(=O)[C@@H](CCCCN)NC(=O)[C@H]1CCCN1C(=O)CNC(=O)[C@@H]1CCCN1C(=O)[C@H](CCCCN)NC(=O)[C@H](Cc1c[nH]cn1)NC(=O)[C@H](Cc1c[nH]c2ccccc12)NC(=O)[C@@H](NC(=O)[C@@H](NC(=O)[C@@H]1CCCN1C(=O)[C@H](CCCNC(=N)N)N(C)C(=O)[C@@H](N)CCCNC(=N)N)[C@@H](C)O)[C@@H](C)O)C(=O)N[C@@H](C(=O)N1CCC[C@@H]1C(=O)N[C@H](CCCNC(=N)N)C(=O)N[C@H](CCCNC(=N)N)C(=O)O)[C@H](C)O) | – | – | not cleaved [3]: no degradation products within 120 minutes; 100% at 120 min
9 | C[C@@H](O)[C@H](NC(=O)[C@@H](NC(=O)[C@@H]1CCCN1C(=O)[C@H](CCCNC(=N)N)NC(=O)c1ccc2c(c1)C(=O)OC21c2ccc(O)cc2Oc2cc(O)ccc21)[C@@H](C)O)C(=O)N[C@@H](Cc1c[nH]c2ccccc12)C(=O)N[C@@H](Cc1c[nH]cn1)C(=O)N[C@@H](CCCCN)C(=O)N1CCC[C@H]1C(=O)O [FAM-trunc-ver1-PCPP11] (5FAM-RPTTWHKP-OH; C-terminus assumed) | full-length≥trunc-ver3>trunc-ver1>>trunc-ver2 | – | –
